Measured values from the NIST ThermoML archive (doi:10.1021/je900537y).

Experiment: molar heat capacity at constant pressure
Settings: 101.33 kPa, Liquid, Small sample (50 mg) DSC

NCCCN [1,3-propanediamine]
Settings | molar heat capacity at constant pressure [J/K/mol]
293.15 K | 203.05
294.65 K | 203.21
296.15 K | 203.37
297.65 K | 203.53
298.15 K | 203.59
299.15 K | 203.7
300.65 K | 203.86
302.15 K | 204.03
303.65 K | 204.19
305.15 K | 204.36
306.65 K | 204.53
308.15 K | 204.7
309.65 K | 204.87
311.15 K | 205.04
312.65 K | 205.21
314.15 K | 205.38
315.65 K | 205.56
317.15 K | 205.73
318.65 K | 205.91
320.15 K | 206.08
321.65 K | 206.26
323.15 K | 206.43
324.65 K | 206.61
326.15 K | 206.79
327.65 K | 206.96
329.15 K | 207.14
330.65 K | 207.32
332.15 K | 207.5
333.65 K | 207.67
335.15 K | 207.85
336.65 K | 208.03
338.15 K | 208.2
339.65 K | 208.38
341.15 K | 208.56
342.65 K | 208.73
344.15 K | 208.91
345.65 K | 209.08
347.15 K | 209.26
348.65 K | 209.43
350.15 K | 209.6
351.65 K | 209.78
353.15 K | 209.95

NCCCCN [1,4-butanediamine]
Settings | molar heat capacity at constant pressure [J/K/mol]
298.15 K | 236.33
299.15 K | 236.45
300.65 K | 236.61
302.15 K | 236.77
303.65 K | 236.94
305.15 K | 237.09
306.65 K | 237.25
308.15 K | 237.41
309.65 K | 237.56
311.15 K | 237.72
312.65 K | 237.87
314.15 K | 238.03
315.65 K | 238.18
317.15 K | 238.34
318.65 K | 238.49
320.15 K | 238.65
321.65 K | 238.81
323.15 K | 238.97
324.65 K | 239.13
326.15 K | 239.29
327.65 K | 239.46
329.15 K | 239.63
330.65 K | 239.8
332.15 K | 239.98
333.65 K | 240.15
335.15 K | 240.34
336.65 K | 240.52
338.15 K | 240.71
339.65 K | 240.91
341.15 K | 241.11
342.65 K | 241.32
344.15 K | 241.53
345.65 K | 241.74
347.15 K | 241.97
348.65 K | 242.2
350.15 K | 242.43
351.65 K | 242.68
353.15 K | 242.93

NCCCCCCN [1,6-hexanediamine]
Settings | molar heat capacity at constant pressure [J/K/mol]
314.15 K | 301.08
315.65 K | 301.25
317.15 K | 301.42
318.65 K | 301.59
320.15 K | 301.77
321.65 K | 301.95
323.15 K | 302.14
324.65 K | 302.33
326.15 K | 302.53
327.65 K | 302.74
329.15 K | 302.95
330.65 K | 303.17
332.15 K | 303.4
333.65 K | 303.64
335.15 K | 303.88
336.65 K | 304.13
338.15 K | 304.4
339.65 K | 304.67
341.15 K | 304.95
342.65 K | 305.25
344.15 K | 305.55
345.65 K | 305.87
347.15 K | 306.2
348.65 K | 306.54
350.15 K | 306.89
351.65 K | 307.26
353.15 K | 307.64
